Experimental data taken from US8586107B2, “Schisandra sphenanthera fruit extract and cosmetic, dermatological, and nutraceutical compositions comprising same” (Laboratoires Expanscience, priority 2009, dated 2013).
Marks after values point to notes of the source that are not given here.

Assays:
[1] = test system: interleukin-1β (IL-1β) secretion; test: IL-1β secretion induced by PMA in keratinocytes (ELISA); format: cell-based, human
Protocol: (§1) Normal human keratinocytes were preincubated for 24 hours with Schisandra peptides at concentrations of 0.005% and 0.05% or with 10^-7 M dexamethasone (anti-inflammatory reference molecule).
(§2) Inflammation was then induced by treatment with 10 μg/ml PMA for 24 hours, always in the presence of Schisandra peptides or dexamethasone.
(§3) At the end of incubation, the quantities of interleukin-1β (IL-1β), interleukin-8 (IL-8) and interleukin-6 (IL-6) present in the culture supernatants were measured by ELISA.
(§4) In parallel, the number of biologically active cells is determined by a neutral red test. The quantity of cytokine assayed for each condition is reduced to the number of living cells by dividing by the OD540 value obtained at the end of the neutral red test.

[2] = test system: interleukin-8 (IL-8) secretion; test: IL-8 secretion induced by PMA in keratinocytes (ELISA); format: cell-based, human
Protocol: as §1, §2, §3, §4

[3] = test system: interleukin-6 (IL-6) secretion; test: IL-6 secretion induced by PMA in keratinocytes (ELISA); format: cell-based, human; conditions: for IL-6: keratinocytes
Protocol: as §1, §2, §3, §4

VEGF secretion = test: VEGF protein release induced by PMA in keratinocytes (ELISA); format: cell-based, human
Protocol: Normal human keratinocytes were preincubated for 24 hours with Schisandra peptides at concentrations of 0.005%, 0.05% and 0.1% or with 10^-7 M dexamethasone (anti-inflammatory reference molecule).
as §2
At the end of incubation, the quantity of VEGF present in the culture supernatants was measured by ELISA.
as §4
The significance of the results was verified by a single-factor analysis of variance followed by a Tukey's test (GraphPad Prism version 5.02 software, GraphPad Software, San Diego, Calif., USA).

[4] = test system: kallikrein 5 (KLK5) gene expression; test: KLK5 gene expression induced by calcitriol in keratinocytes (real-time RT-PCR); format: cell-based, human; conditions: NHEK, 24 hours
Protocol: (§5) In order to evaluate the potential activity of Schisandra peptides in the inflammatory phase of rosacea, we studied the effect of this complex of active agents on kallikrein 5 (KLK5) and cathelicidin (LL37) gene expression induced by a vitamin D analogue (calcitriol) in keratinocytes.
(§6) Normal human epidermal keratinocytes (NHEK) were cultivated in culture medium supplemented with Ca++ in order to bring them to a state of differentiation.
(§7) The keratinocytes were treated for 24 hours with 0.05% (w/v) Schisandra peptides in the presence or absence of 10^-7 M calcitriol (vitamin D analogue).
(§8) At the end of the treatment, the culture supernatants were eliminated and total RNA extracted using an extraction kit (RNeasy Mini Kit, Qiagen). Total RNA were then assayed in chips using the Experion™ system and the Experion RNA StdSens kit (Bio-Rad) and then reverse-transcribed into cDNA using the iScript cDNA Synthesis kit (Bio-Rad).
(§9) The neo-synthesized cDNA relating to the genes of interest (KLK5 and LL37) or to the reference genes were amplified selectively by real-time PCR on an iQ5 system (Bio-Rad) using SybrGreen technology (iQ SybrGreen kit, Bio-Rad).
(§10) The real-time RT-PCR method enables the relative quantification of the expression level of a gene of interest in relation to that of a reference gene in response to a given treatment.
(§11) The quantitative analysis of the results is based on the collection of threshold cycles.
(§12) The threshold cycle is […] correlated with the initial number of copies of target DNA.
(§13) ΔCt is thus calculated as follows: ΔCt=Cttarget gene−Ctreference gene
(§14) In a second step, the variation, as a function of the treatment and the number of copies of the gene of interest, was determined. ΔΔCt is thus calculated as follows: ΔΔCt=ΔCtcontrol−ΔCttreated
(§15) Lastly, relative quantity (RQ) is calculated: RQ=(1+E)ΔΔCt.
(§16) E (efficiency) is considered equal to 1, and thus: RQ=2ΔΔCt
(§17) The significance of the results was verified for the ΔCt values by a single-factor analysis of variance followed by a Tukey's test (GraphPad Prism version 5.02 software, GraphPad Software, San Diego, Calif., USA).

[5] = test system: cathelicidin (LL37) gene expression; test: LL37 gene expression induced by calcitriol in keratinocytes (real-time RT-PCR); format: cell-based, human; conditions: NHEK, 24 hours
Protocol: as §5, §6, §7, §8, §9, §10, §11, §12, §13, §14, §15, §16, §17

[6] = test system: Normal human dermal microvascular endothelial cells; test: Endothelial cell proliferation in the absence or presence of VEGF (intracellular phosphatase activity); format: cell-based; conditions: 10 ng/ml VEGF
Protocol: Normal human dermal microvascular endothelial cells were incubated for 24 or 48 hours in the absence (control) or presence of Schisandra peptides at concentrations of 0.05% and 0.1% and in the presence and absence of 10 ng/ml vascular endothelial growth factor (VEGF), the reference activator.
At the end of incubation, cell viability was evaluated by a spectrophotometric assay of intracellular phosphatase activity.
Statistical significance was evaluated by a single-factor analysis of variance followed by a Holm-Sidak test.

endothelin production = test: Endothelin production by dermal microvascular endothelial cells (ELISA); format: cell-based, human; conditions: 6 hours, 16.7 nM insulin
Protocol: Endothelin is a neuropeptide with powerful vasoconstrictive activity. It is secreted by endothelial and epithelial cells (keratinocytes), fibroblasts, adipocytes and macrophages. The effect of Schisandra peptides on endothelin production by endothelial cells was studied.
Normal adult human dermal microvascular endothelial cells cultivated in a monolayer were incubated for 6 hours in the absence (control) or the presence of 0.05% and 0.1% Schisandra peptides or 16.7 nM insulin (reference activator).
At the end of the incubation period, secreted endothelin was quantified by ELISA. In parallel, the proteins contained in the cellular lysates were quantified by the Bradford method.
The quantity of endothelin assayed was thus normalized with the quantity of total proteins, and the results were then expressed as the ratio of endothelin (ng) to total protein (μg) in the layer of cells.
The statistical significance of the results was evaluated by a single-factor analysis of variance followed by a Holm-Sidak test.

[7] = 10 μg/ml PMA 24 hours alone (stimulated control)
[8] = 10^-7 M calcitriol alone (stimulated control)
[9] = 10^-7 M calcitriol alone (stimulated control), control cells = 1
[10] = 10−7 M dexamethasone 24 h preincubation + PMA 24 h

Compound: CCCCCCCCCCCCCC(=O)O[C@@H]1[C@@H](C)[C@@]2(O)[C@@H](C=C(CO)C[C@]3(O)C(=O)C(C)=C[C@@H]23)[C@@H]2C(C)(C)[C@]12OC(C)=O [PMA]
- IL-1β [1, 7]: 0.106 ± 0.008 ODELISA-ODneutral red
- IL-8 [2, 7]: 2.056 ± 0.166 pg/ml/ODneutral red
- IL-6 [3, 7]: 0.098 ± 0.002 ODELISA/ODneutral red
- VEGF (VEGF secretion; [7]): 3333.861 ± 111.766 pg/ml/ODneutral red

Compound: C=C1/C(=C\C=C2/CCC[C@]3(C)[C@@H]([C@H](C)CCCC(C)(C)O)CC[C@@H]23)C[C@@H](O)C[C@@H]1O [calcitriol]
- Stimulation of kallikrein 5 gene expression vs. control cells ([4]; 10^-7 M calcitriol): +149%
- Mean ΔCt (CtKLK5 − CtGAPDH) [4, 8]: 2.46
- ΔΔCt (KLK5) [4, 8]: 1.32
- KLK5 expression (RQ) [4, 9]: 2.49$$
- Stimulation of LL37 gene expression vs. control cells ([5]; 10^-7 M calcitriol): +795%
- Mean ΔCt (CtLL37 − CtGAPDH) [5, 8]: 11.01
- ΔΔCt (LL37) [5, 8]: 3.16
- LL37 expression (RQ) [5, 9]: 8.95$$$

Compound: C[C@@H]1C[C@H]2[C@@H]3CCC4=CC(=O)C=C[C@]4(C)[C@@]3(F)[C@@H](O)C[C@]2(C)[C@@]1(O)C(=O)CO [dexamethasone]
- IL-1β [1, 10]: 0.037 ± 0.011 ODELISA-ODneutral red
- IL-8 [2, 10]: 0.973 ± 0.213 pg/ml/ODneutral red
- IL-6 release, change vs. stimulated control (PMA) ([3]; 10−7 M dexamethasone): −56%***
- IL-6 [3, 10]: 0.043 ± 0.012 ODELISA/ODneutral red
- VEGF (VEGF secretion; 10^−7 M dexamethasone 24 h preincubation + PMA 24 h): 1789.338 ± 489.677 pg/ml/ODneutral red

Compound: VEGF
- Endothelial cell growth, stimulation in relation to control cells ([6]; 24 hours): +41.4%
- Endothelial cell growth, stimulation in relation to control cells ([6]; 48 hours): +96.3%

Compound: insulin: reference activator of endothelin production
- Endothelin production, change vs. control cells (endothelin production): +30%
- Endothelin (endothelin production; endothelial cells): 1.72 ± 0.23 ng/μg of proteins
